Tests used:
HIV-1 LAI (IIIB) = test: antiviral assay in the presence of 50% human serum; type: cell-based; conditions: MT-4-LTR-EGFP cells, 4 days, resazurin cell viability
Description: For the antiviral assay in the presence of 50% human serum, MT-4-LTR-EGFP cells were infected with HIV-1 LAI (IIIB) at a MOI of 0.001 to 0.01 CCID50/cell in RPMI1640 medium. Following 1 h of incubation, cells were washed and plated into a 96-well plate containing serial dilutions of test compound in the presence of 10% fetal calf serum or 50% human serum. After 4 days of incubation, the EC50 in the presence of 50% human serum (EC50/HS) was determined by a cell viability assay using resazurin (as described by Fields, R. D., and M. V. Lancaster (1993) Am. Biotechnol. Lab. 11:48-50).

HIV-1 SDM strain Q148R = test: cell-based HIV-1 replication assay in MT4-LTR-EGFP cells, Q148R mutant; conditions: fold change in activity against Q148R mutant compared to wild type HIV
Excerpt: (§1) MT4-LTR-enhanced green fluorescent protein (EGFP) cells were obtained by transfecting MT4 cells with a selectable construct encompassing the coding sequences for the HIV LTR as a promoter for the expression of EGFP and subsequent selection of permanently transfected cells. MT4-cytomegalovirus (CMV)-EGFP cells were obtained by selection for permanently transformed MT4 cells with a CMV-EGFP reporter gene. Cell lines were maintained in RPMI 1640 medium supplemented with 10% heat-inactivated fetal calf serum, 2 mM L-glutamine, 0.1% NaHCO3, and antibiotics (0.02% gentamicin and 0.8% G418) and incubated in a humidified incubator with a 5% CO2 atmosphere at 37° C.
(§2) N155H and Q148R mutant Integrase coding sequences were constructed in the pUC19-5′HXB2D vector (XbaI-SalI fragment of pHXB2D), containing the HIV-1 clone HXB2D IN coding sequence, by using a QuikChange site-directed mutagenesis kit (Stratagene, La Jolla, Calif.) and HPLC-purified primers (Genset Oligos, La Jolla, Calif.). Altered plasmid sequences were confirmed by dideoxyribose sequencing. For generation of site-directed mutant (SDM) virus stocks, MT4 cells were subcultured at a density of 250,000 cells/ml on the day before transfection. Cells were pelleted and resuspended in phosphate-buffered saline at a concentration of 3.1×10^6 cells/ml. A 0.8-ml portion ([…]) was used for each transfection. Transfections were performed with a Bio-Rad Gene Pulser (Bio-Rad, Hercules, Calif.) with 0.4-cm electrode cuvettes (Bio-Rad). Cells were electroporated with 10 μg of SalI-linearized pUC19-3′HXB2D (SalI-XbaI fragment of pHXB2D) and 5 μg of SalI-digested SDM at 250 μF and 300 V, followed by a 30-min incubation at room temperature. Ten ml of fresh culture medium was then added to the suspension of transfected cells, and incubation was performed at 37° C. in a humidified atmosphere with 5% CO2. Cell cultures were monitored for the appearance of cytopathic effect (CPE).
(§3) The inhibitory antiviral activity of different compounds was determined in a cell-based HIV-1 replication assay. MT4-LTR-EGFP cells (150,000 cells/ml) were infected with HIV-1 (IIIB or SDM strains Q148R, N155H, or G140S-Q148H; multiplicity of infection [MOI] of 0.0025) in the presence or absence of inhibitor. After 3 days of incubation, the inhibition of HIV replication was quantified by measuring EGFP fluorescence, and expressed as the compound concentration required for 50% inhibition of HIV-1 replication in cell culture (EC50).

[1] = pharmacokinetic evaluation in the rat; type: in vivo, male Sprague-Dawley rats; conditions: intravenous bolus 2 mg/kg; for CLp / clearance: plasma clearance; for t1/2 / half-life: terminal phase elimination half-life; for Vss / Vd: volume of distribution at steady-state; for clearance / half-life / Vd: male, Sprague-Dawley, plasma, iv, 2 mg/kg; for clearance: read-out: CLp; for Vd: read-out: Vss
Description: For determining the pharmacokinetic properties in rat, each HIV integrase inhibitor was dissolved in PEG400/normal saline (70:30 (v/v)) at a nominal concentration of 1 mg/ml and administered (2 ml/kg) to male Sprague-Dawley rats (n=3 per test compound) as an intravenous bolus via a saphenous vein at a dose level of 2 mg/kg. […] Plasma was obtained by centrifugation and stored at −20° C. prior to analysis. Analysis was performed using liquid chromatography (LC) with tandem mass spectrometric detection (MS/MS) in positive ion mode. Each HIV integrase inhibitor was eluted from a reversed-phase column with a gradient of acetonitrile and water containing 0.1% (v/v) formic acid. At the time of analysis plasma samples (50 p. 1) were thawed and […] with 200 μl of acetonitrile containing 0.1% (v/v) formic acid and centrifuged. Aliquots of the supernatant (100 μl) were diluted with 200 μl of water containing 25% (v/v) methanol and 0.1% (v/v) formic acid and injected via an electrospray interface directly into the Mass Spectrometer. Calibration standards and quality controls were prepared in rat plasma at the same time as the samples and analyzed before and after the samples containing HIV integrase inhibitor. Non-compartmental pharmacokinetic analysis of the plasma concentration-time curves was performed using WinNonLin software to provide estimates of the plasma clearance (CLp), volume of distribution at steady-state (Vss) and terminal phase elimination half-life (t1/2).

[2] = test system: cryopreserved hepatocytes of human subjects; test: metabolic stability in human hepatocytes; type: in vitro ADME; conditions: 1 μM, percentage turnover; for Human (% TO) 15 min: 15 min incubation; for Human (% TO) 60 min: 60 min incubation
Description: (§4) For determining in vitro metabolic stability, cryopreserved hepatocytes from Sprague Dawley rats and of human subjects (pool of male and female) were obtained from an external supplier (Cellz Direct Inc., Paisly, UK). Tested compounds were dissolved in DMSO and this stock solution was used to spike rat and human hepatocyte cell cultures (10^6 cells/ml) at a final concentration of 1 μM (final percentage of DMSO was 0.02% (v/v)). Incubations were performed for up to 60 min at approximately 37° C. and terminated by the addition of two volumes of DMSO. Samples were then centrifuged and aliquots of the supernatant analyzed using liquid chromatography (LC) with electrospray mass spectrometric detection (MS/MS) to monitor the disappearance of parent compound by single reaction monitoring (SRM) and reverse-phase chromotatography with a gradient of acetonitrile and water containing 0.1% (v/v) formic acid. Based on peak area, the percentage of parent compound remaining after 15 and 60 min incubation was calculated and the results, expressed as percentage turnover (TO) relative to time zero controls.

HIV-1 SDM strain N155H = test: cell-based HIV-1 replication assay in MT4-LTR-EGFP cells, N155H mutant; conditions: fold change in activity against N155H mutant compared to wild type HIV
Excerpt: as §1, §2, §3

[3] = test system: cryopreserved hepatocytes from Sprague Dawley rats; test: metabolic stability in rat hepatocytes; type: in vitro ADME; conditions: 1 μM, percentage turnover; for Rat (% TO) 15 min: 15 min incubation; for Rat (% TO) 60 min: 60 min incubation
Description: as §4

[4] = test system: HIV-1 SDM strain G140S-Q148H; test: cell-based HIV-1 replication assay in MT4-LTR-EGFP cells, G140S-Q148H mutant; conditions: fold change in activity against G140S-Q148H mutant compared to wild type HIV
Excerpt: as §1, §2, §3

HIV-1 (IIIB) = test: cell-based HIV-1 replication assay in MT4-LTR-EGFP cells, wild type; conditions: Human immunodeficiency virus 1, 72 h, 3 days, EGFP fluorescence
Excerpt: as §1
as §3, with “(EC50). The antiviral activities of the different compounds are reported in Table 4 and expressed as EC50 for the inhibition of wild type HIV (IIIB EC50) and as fold change in activity against the mutant strains (FC-Q148R, FC-N155H, FC-G140S-Q148H) compared to the activity against wild type HIV.” for “(EC50).”

[5] = Human immunodeficiency virus 1, IIIB, 96 h

Compound	EC50 (HIV-1 LAI (IIIB)) [nM]	FC-Q148R (HIV-1 SDM strain Q148R)	CLp [1] [mL/min/kg]	t1/2 [1] [h]	Vss [1] [L/kg]	Human (% TO) 15 min [2] [% TO]	Human (% TO) 60 min [2] [% TO]	FC-N155H (HIV-1 SDM strain N155H)	Rat (% TO) 15 min [3] [% TO]	Rat (% TO) 60 min [3] [% TO]	FC-G140S-Q148H [4]	EC50 (HIV-1 LAI (IIIB); [5]) [nM]	EC50 (HIV-1 (IIIB)) [nM]	clearance [1] [mL/min/kg]	half-life [1] [h]	Vd [1] [L/kg]
CCN1C[C@H](C)n2c(c(O)c3c(=O)n4nc(c32)N(C)S(=O)(=O)CCCCCOc2cc(F)ccc2C4)C1=O [Compound 5]	16	0.5	8	4.9	1.5	12	38	2.4	15	20	1.2					
CC(C)N1C[C@H](C)n2c(c(O)c3c(=O)n4nc(c32)N(C)S(=O)(=O)CCCCOc2cc(F)ccc2C4)C1=O [Compound 6]	5	0.7	5	5.5	0.7	23	36	3.2	20	33	1.7					
CC(C)N1C[C@H](C)n2c(c(O)c3c(=O)n4nc(c32)N(C)S(=O)(=O)CCCCCOc2cc(F)ccc2C4)C1=O [Compound 7]	12	0.4	7	4.8	0.9	2	12	2.2	21	31	1.0					
CCN1C[C@H](C)n2c(c(O)c3c(=O)n4nc(c32)N2CCN(CC2)C(=O)CCCOc2cc(F)ccc2C4)C1=O [Compound 44]	6	0.7	16	5.2	1.8	20	43	3.9	48	70	1.3					
CCN1C[C@H](C)n2c(c(O)c3c(=O)n4nc(c32)N(C)S(=O)(=O)CCCCOCc2cc(F)ccc2C4)C1=O [Compound 48]	4	0.5	20	1.4	0.7	38	72	4.7	65	86	1.3					
CCN1C[C@H](C)n2c(c(O)c3c(=O)n(Cc4ccc(F)c(Cl)c4)nc(C(=O)NC)c32)C1=O [Compound 52r, reference compound]		1.2				25	44	6.8	38	76	56.9	29	3.4	5	1.6	0.2
CCN1C[C@H](C)n2c(c(O)c3c(=O)n(Cc4ccc(F)cc4)nc(N(C)S(C)(=O)=O)c32)C1=O [Compound 53r, reference compound]		0.4				41	84	4.9	60	89	2.0	3	0.99	75	1.7	2.9

Reference: patent US8716293B2, “Macrocyclic integrase inhibitors” (Janssen R&D Ireland, priority 2010, dated 2014)
